# Values quoted from earlier work in PMC3277211 (Journal of the American Chemical Society, 2011).
# Key:
# [1] = tested on: S. epidermidis RP62A; conditions: included for comparison
# [2] = tested on: S. agalactiae COH-1; conditions: included for comparison
# [3] = tested on: S. pyogenes MGAS-1; conditions: included for comparison
# [4] = tested on: S. pneumoniae R800; conditions: included for comparison
# [5] = tested on: C. glutamicum DSM 44475; conditions: included for comparison
# [6] = tested on: R. opacus DSM 1069; conditions: included for comparison
# [7] = tested on: S. aureus NCTC 8325; conditions: S. aureus NCTC 8325 wild type; included for comparison
# [8] = tested on: S. aureus P29S PAS8001; conditions: S. aureus NCTC 8325 SpsB(P29S) PAS8001; included for comparison
# [9] = tested on: E. coli P84L PAS0260; conditions: E. coli MG1655 LepB(P84L) PAS0260; included for comparison
# [10] = tested on: P. aeruginosa PAO1; conditions: P. aeruginosa PAO1 wild type; included for comparison
# [11] = tested on: P. aeruginosa P84L PAS2008; conditions: P. aeruginosa PAO1 LepB(P84L) PAS2008; included for comparison
substance,measurement,setting,value
Arylomycin A-C16,MIC,[1],0.25 µg/mL
same,MIC,[2],>128 µg/mL
same,MIC,[3],8 µg/mL
same,MIC,[4],8 µg/mL
same,MIC,[5],4 µg/mL
same,MIC,[6],2 µg/mL
same,MIC,[7],>128 µg/mL
same,MIC,[8],2 µg/mL
same,MIC,[9],2 µg/mL
same,MIC,[10],>128 µg/mL
same,MIC,[11],8 µg/mL
